Measurements taken from patent publication US20160175379A1, “COMBINATION THERAPY FOR THE TREATMENT OF ISCHEMIA-REPERFUSION INJURY” (STEALTH BIO THERAPEUTICS CORP, priority 2013, published 2016).

Tests used:
[1] = test system: cardiac ischemia-reperfusion injury; experiment: Large animal model of acute myocardial infarction injury (cardiac ischemia-reperfusion); format: in vivo, sheep or pig; conditions: peptide given prior to ischemia
Procedure: The effects of aromatic-cationic peptides and cardiovascular agent in protecting against cardiac ischemia-reperfusion injury in a large animal model (e.g., a porcine or ovine model) are investigated.
The animals are sedated with intramuscular ketamine (50 mg/kg), glycopyrrolate (0.2 mg/kg), and buprenorphine (0.05 mg/kg). After intubation, animals are ventilated with a mechanical respirator (Hallowell EMC Model AWS; Hallowell, Pittsfield, Mass.) using room air enriched with 0.6 L/min oxygen. Catheters are introduced into a small auricular artery and vein, and into the right jugular vein for the continuous measurement of blood pressure and the administration of intravenous medications. […] Heart rate, blood pressure, surface electrocardiogram, and rectal temperature are continuously monitored (Hewlett Packard 78534C; Palo Alto, Calif.). […]
Animals undergo a left thoracotomy, and silicone vascular loops (Quest Medical, Allen, Tex.) are placed around the left anterior descending artery and its second diagonal branch, which is 40% of the distance from the apex to the base of the heart. […] Arterial blood pressure, heart rate, surface electrocardiograms (ECG), and rectal temperature are continuously monitored (Hewlett Packard 78534C; Palo Alto, Calif.) throughout the protocol in all animals. […]

[2] = test system: acute myocardial infarction injury; experiment: Acute myocardial infarction injury (ischemia/reperfusion) in a rabbit model; format: in vivo, New Zealand white rabbits; conditions: 30 min ischemia, 3 h reperfusion, IV infusion, compared to the control (vehicle alone) group
Procedure: The effects of a combination of aromatic-cationic peptides and a cardiovascular agent in protecting against an acute myocardial infarction injury in a rabbit model are investigated.
New Zealand white rabbits are used in this study. The rabbits are males and >10 weeks in age. Environmental controls in the animal rooms are set to maintain temperatures of 61° to 72° F. and relative humidity between 30% and 70%. Room temperature and humidity are recorded hourly, and monitored daily. There are approximately 10-15 air exchanges per hour in the animal rooms. Photoperiod is 12-hr light/12-hr dark (via fluorescent lighting) with exceptions as necessary to accommodate dosing and data collection. Routine daily observations are performed. Harlan Teklad, Certified Diet (2030C), rabbit diet is provided approximately 180 grams per day from arrival to the facility. […]
In all cases, treatments are started approximately 10 min after the onset of a 30 min ischemic insult (coronary occlusion) and continued for up to 3 h following reperfusion. In all cases, cardiovascular function is monitored both prior to and during ischemia, as well as for up to 180 min (3 h) post-reperfusion. The experiments are terminated 3 h post-reperfusion (end of study); irreversible myocardial injury (infarct size by histomorphometery) at this time-point is evaluated, and is the primary-end-point of the study. […]

For D-Arg-2′6′-Dmt-Lys-Phe-NH2 [peptide], the “redox ratio (RR) during ischemia” value [1] was “blunted drop in the RR during ischemia” and the “infarct size and apoptotic cell death” value [2] was “significantly reduced”.
